Results as given in publication PMC8411522, “In vitro inhibitory effect of obtusofolin on the activity of CYP3A4, 2C9, and 2E1” (BMC Complementary Medicine and Therapies, 2021).

What was measured:
CYP3A4 [1] = target: T1, CYP3A4 (Homo sapiens, UniProt P08684); experiment: CYP3A4 inhibition in pooled human liver microsomes (testosterone 6β-hydroxylation); assay type: in vitro ADME
T1 construct: Pooled HLMs were obtained from BD Bioscience (Woburn, USA); tissue BD Bioscience; host or cells: pooled human liver microsomes
Description: (§1) The investigation was conducted in pool human liver microsomes in vitro. Except for the HLMs treated with 100 μM obtusofolin, specific inhibitors, and negative control HLMs were also employed.
(§2) The incubation volume was 200 μL containing potassium phosphate buffer (pH 7.4), an NADPH-generating system composed of NADP^+, glucose-6-phosphate, glucose-6-phosphate dehydrogenase, and MgCl2, probe substrates, HLMs, and obtusofolin or positive inhibitors. The experiments for each CYP isoforms were performed in triplicate and the obtained results were represented as mean value ± SD.
(§3) The reactions were initiated by adding the NADPH-generating system after a 3-min preincubation at 37 °C. The reactions were terminated by adding 100 μL acetonitrile or 10% (v:v) trichloroacetic. The mixture was placed on ice and centrifuged at 12,000 rpm for 10 min. A total of 20 μL supernatant was obtained for the analysis of metabolites by HPLC.
(§4) Firstly, 100 μM obtusofolin was incubated with the above incubation system in HLMs to evaluate its effect on the activity of CYP450s. Then the dose-dependent experiments were performed to obtain corresponding parameters in the presence of 0, 2.5, 5, 10, 25, 50, and 100 μM obtusofolin. The concentrations of probe substrates were 20–100 μM testosterone for CYP3A4, 5–20 μM diclofenac for CYP2C9, and 25–250 μM chlorzoxazone for CYP2E1.
(§5) The enzyme kinetic parameters were obtained by the least-squares linear regression. The inhibition data were fitted with non-linear regression according to the following equation: V=VmaxS/Km1+I/Ki+Sfor competitive inhibitionCYP2C9 and 2E1; V=VmaxS/Km+S1+I/Kifor non−competitive inhibitionCYP3A4.
(§6) where I is the concentration of the compound, Ki is the inhibition constant, S is the concentration of the substrate and Km is the substrate concentration at half the maximum velocity (Vmax) of the reaction. The mechanism of the inhibition was inspected using the Lineweaver–Burk plots and the enzyme inhibition models. The data comparison was performed using the Student’s t-test and performed using IBM SPSS statistics 20 (SPSS Inc., Chicago, IL, USA).

CYP2C9 [2] = target: T2, CYP2C9 (Homo sapiens, UniProt P11712); experiment: CYP2C9 inhibition in pooled human liver microsomes (diclofenac 4′-hydroxylation); assay type: in vitro ADME
T2 construct: Pooled HLMs were obtained from BD Bioscience (Woburn, USA); tissue BD Bioscience; host or cells: pooled human liver microsomes
Description: as §1, §2, §3, §4, §5, §6

CYP2E1 [3] = target: T3, CYP2E1 (Homo sapiens, UniProt P05181); experiment: CYP2E1 inhibition in pooled human liver microsomes (chlorzoxazone 6-hydroxylation); assay type: in vitro ADME
T3 construct: Pooled HLMs were obtained from BD Bioscience (Woburn, USA); tissue BD Bioscience; host or cells: pooled human liver microsomes
Description: as §1, §2, §3, §4, §5, §6

CYP3A4 [4] = target: T1, CYP3A4; experiment: Time-dependent inhibition of CYP3A4 in pooled HLMs; assay type: in vitro ADME
Description: (§7) The time-dependent inhibition experiments were conducted at the incubation time of 0, 5, 10, 15, and 30 min at 37 °C with 20 μM obtusofolin. After the incubation, a total of 20 μL aliquot was transferred to another tube with the NADPH-generating system and probe substrates and incubation for a specific time. The reactions were terminated by the addition of acetonitrile and placed on ice for further analysis.
The time-dependent characteristic was estimated by the values of KI and Kinact obtained from further experiments. The incubation was performed with 0, 2, 5, 10, 20, and 50 μM obtusofolin and a higher concentration of substrates (approximately 4-fold to Km) for 0, 5, 10, 15, and 30 min. The incubation scheme was performed as described above. The fitting equation to obtain the value of KI and Kinact was: 1/Kobs=KI/Kinact∗1/I+1/Kinact
where Kobs is the pseudo-first-order rate constant of inactivation at inactivated concentration [I], Kinact is the maximum inactivation rate (a theoretical value that cannot be experimentally observed), and KI is the inactivated concentration when the rate of inactivation reaches half of Kinact.

CYP2C9 [5] = target: T2, CYP2C9; experiment: Time-dependent inhibition of CYP2C9 in pooled HLMs; assay type: in vitro ADME; conditions: 20 μM obtusofolin, 5 to 30 min
Description: as §7

CYP2E1 [6] = target: T3, CYP2E1; experiment: Time-dependent inhibition of CYP2E1 in pooled HLMs; assay type: in vitro ADME; conditions: 20 μM obtusofolin, 5 to 30 min
Description: as §7

[7] = parameters: method as in PMID 33119923; conditions: rats, 1.3 mg/kg obtusofolin; cited from earlier work
[8] = 100 μM obtusofolin, pooled HLMs, P < 0.05 vs negative control
[9] = Lineweaver–Burk plots, best fit
[10] = pooled HLMs, 0, 2.5, 5, 10, 25, 50, 100 μM obtusofolin, mean ± SD, triplicate

T3 sequence (P05181 whole entry): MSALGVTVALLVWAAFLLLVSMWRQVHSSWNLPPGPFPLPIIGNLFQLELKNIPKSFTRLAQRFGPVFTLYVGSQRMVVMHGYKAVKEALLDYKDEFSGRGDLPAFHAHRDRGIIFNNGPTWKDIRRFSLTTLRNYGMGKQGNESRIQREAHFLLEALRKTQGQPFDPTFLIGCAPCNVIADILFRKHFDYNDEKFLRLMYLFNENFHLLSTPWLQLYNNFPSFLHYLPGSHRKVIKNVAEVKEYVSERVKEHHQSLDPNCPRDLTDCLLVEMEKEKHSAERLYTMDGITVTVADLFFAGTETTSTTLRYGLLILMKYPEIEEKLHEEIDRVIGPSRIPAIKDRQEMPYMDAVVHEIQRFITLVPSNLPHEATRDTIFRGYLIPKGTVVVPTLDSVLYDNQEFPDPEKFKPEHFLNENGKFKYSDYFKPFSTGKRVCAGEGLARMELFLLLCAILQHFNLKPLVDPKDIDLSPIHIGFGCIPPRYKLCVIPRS
T1 sequence (P08684 whole entry): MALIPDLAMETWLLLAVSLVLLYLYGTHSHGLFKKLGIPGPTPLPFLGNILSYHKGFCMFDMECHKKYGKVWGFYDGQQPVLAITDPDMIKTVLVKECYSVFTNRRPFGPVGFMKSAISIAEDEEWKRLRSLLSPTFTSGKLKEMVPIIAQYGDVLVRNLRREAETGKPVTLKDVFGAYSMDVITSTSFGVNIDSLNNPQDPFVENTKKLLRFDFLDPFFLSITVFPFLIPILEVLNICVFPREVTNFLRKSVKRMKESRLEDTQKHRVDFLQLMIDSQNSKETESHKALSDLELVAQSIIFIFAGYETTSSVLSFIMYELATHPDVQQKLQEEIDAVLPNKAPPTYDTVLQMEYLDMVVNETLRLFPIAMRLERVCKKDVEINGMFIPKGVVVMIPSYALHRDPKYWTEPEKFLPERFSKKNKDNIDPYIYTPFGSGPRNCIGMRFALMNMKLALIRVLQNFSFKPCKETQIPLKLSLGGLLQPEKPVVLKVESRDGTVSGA
T2 sequence (P11712 whole entry): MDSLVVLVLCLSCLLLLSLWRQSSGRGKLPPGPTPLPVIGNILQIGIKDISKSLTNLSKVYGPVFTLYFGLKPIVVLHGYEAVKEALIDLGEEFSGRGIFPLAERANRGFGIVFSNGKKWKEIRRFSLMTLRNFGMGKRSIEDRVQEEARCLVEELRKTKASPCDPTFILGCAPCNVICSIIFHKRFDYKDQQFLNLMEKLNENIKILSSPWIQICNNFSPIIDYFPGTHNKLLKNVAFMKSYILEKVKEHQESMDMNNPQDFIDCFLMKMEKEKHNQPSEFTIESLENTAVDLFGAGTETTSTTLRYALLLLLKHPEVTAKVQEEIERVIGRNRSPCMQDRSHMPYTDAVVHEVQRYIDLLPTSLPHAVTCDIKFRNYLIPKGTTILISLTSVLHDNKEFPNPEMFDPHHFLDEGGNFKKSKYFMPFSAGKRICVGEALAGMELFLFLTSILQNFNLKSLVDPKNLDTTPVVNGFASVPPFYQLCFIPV

activity of CYP3A4 (CYP3A4 [1]; [8]): significantly suppressed
inhibition model of CYP3A4 (CYP3A4 [1]; [9]): non-competitive
Ki (CYP3A4 [1]; non-competitive model, 20–100 μM testosterone, pooled HLMs): 8.82 µM
IC50 (CYP3A4 [1]; [10]): 17.1 ± 0.25 µM
activity of CYP2C9 (CYP2C9 [2]; [8]): significantly suppressed
inhibition model of CYP2C9 (CYP2C9 [2]; [9]): competitive
Ki (CYP2C9 [2]; competitive model, 5–20 μM diclofenac, pooled HLMs): 5.54 µM
IC50 (CYP2C9 [2]; [10]): 10.8 ± 0.13 µM
activity of CYP2E1 (CYP2E1 [3]; [8]): significantly suppressed
inhibition model of CYP2E1 (CYP2E1 [3]; [9]): competitive
Ki (CYP2E1 [3]; competitive model, 25–250 μM chlorzoxazone, pooled HLMs): 7.79 µM
IC50 (CYP2E1 [3]; [10]): 15.5 ± 0.16 µM
inhibitory effect on CYP3A4 versus incubation time (CYP3A4 [4]; 20 μM obtusofolin, 5 to 30 min): increased with the incubation time
kinact (CYP3A4 [4]; human, pooled human liver microsomes, 0, 2, 5, 10, 20, 50 μM obtusofolin, 0-30 min, substrate approx. 4-fold Km): 0.000858 s⁻¹
CYP3A4 inactivated per minute (CYP3A4 [4]; saturating concentration of obtusofolin): approximately 5.15%
inhibitory effect on CYP2C9 versus incubation time (CYP2C9 [5]): not affected
inhibitory effect on CYP2E1 versus incubation time (CYP2E1 [6]): not affected
SMILES: COc1c(O)c(C)cc2c1C(=O)c1c(O)cccc1C2=O [obtusofolin]
maximum (plasma concentration) [7]: 152.5 ± 62.3 ng/mL
